Assay [1] deals with murine MMP-9. Put plainly: SDS-PAGE gelatin zymography of corneal and conjunctival epithelial cells of EDE mice. The settings on record: FIG. 3. Format: in vivo. The method, then:
(§1) 6 to 8 weeks old C57BL/6 mice (Central Lab Animal, Seoul, Korea) were used for mouse model for dry eye syndrome. All animals were treated according to the ARVO Statement for the Use of Animals in Ophthalmic and Vision Research. Experimental dry eye (EDE) was induced by subcutaneous injection of 0.5 mg/0.2 mL scopolamine hydrobromide (Sigma-Aldrich, St. Louis, Mo.) in alternating hindquarters administered four times a day (9 AM, […], 3 PM and 6 PM) and by exposure to air and ≦40% ambient humidity for 18 hours per day, as previously reported (23). Four experimental groups were evaluated: untreated group (UT), EDE group (control), EDE+sialyllactose (1 mg/kg) group and EDE+sialyllactose (5 mg/kg) group.
In order to determine the relative concentration of gelatinases in corneal and conjunctival epithelial cells, SDS-PAGE gelatin zymography was performed by using a previously reported method (24). Tissue was homogenized in a sample buffer containing 50 mM Tris-HCl (pH 8.0), 150 mM NaCl, 0.02% NaN3, […] phenylmethylsulfonyl fluoride (PMSF) and 1% Triton X-100. […]
Gelatinolytic activity (105 kDa gelatinolytic band corresponds to murine MMP-9) was evaluated in corneal and conjunctival epithelial cells acquired from the UT, EDE and two treatment groups.

Assay [2] has as its system IL-1β. Put plainly: RT-PCR of IL-1β RNA transcripts in corneal epithelial cells of EDE mice. Format: in vivo, murine. Here is the method: as §1
(§2) Corneal and conjunctival epithelial cells acquired from six eyes per each test group. Total RNA was isolated using Trizol reagent (JBI Co., Korea) and kept at −80° C. until use. cDNA was synthesized by reverse transcriptase with an oligo dT-adaptor primer from an RNA PCR kit (Bioneer, Korea) according to the manufacturer's recommended protocol. […] In RT-PCR assay, utilization of the same quantity of mRNA was confirmed by analyzing expression level of mGAPDH. […]
(§3) The level of RNA transcripts encoding MMP-9, IL-1β, TNF-α and the housekeeping gene GAPDH were evaluated by RT-PCR using the total RNA of the corneal epithelial cells obtained from each group (UT, EDE and EDE+sialyllactose). […]

The test system of assay [3] is TNF-α. In words: RT-PCR of TNF-α RNA transcripts in corneal epithelial cells of EDE mice. Format: in vivo, murine. The method, then: as §1, §2, §3
The subject of assay [4] is MMP-9. In words: RT-PCR of MMP-9 RNA transcripts in corneal epithelial cells of EDE mice. Format: in vivo, murine. The method, then:
as §1, §2, §3

Assay [5] has as its system human retinal endothelial cells (HREC). Put plainly: Tube formation assay on Matrigel, VEGF-stimulated HREC. It counts as cell-based. Conditions: 24 hours, concentration-dependent, FIG. 5. Here is the method:
(§4) Human retinal endothelial cells (HREC) were acquired from Sciencell (USA). The cells were cultured in sterilized endothelial cell medium (ECM, Sciencell, USA), and kept in a humidified 5% CO2 incubator at 37° C. Passages 4 to 6 of the HREC were used for testing.
Sialyllactose's inhibition effect against HREC's capillary-like network induced by VEGF was investigated using Matrigel-coated 24-well culture plate. Matrigel (13.9 mg/mL) was melted overnight at 4° C. and mixed with ECM medium at a ratio of 1:1. After adding 70 μL of Matrigel (6.95 mg/mL) diluted with ECM to each well of the 24-well culture plate, polymerization was performed for 1 hour at 37° C. For evaluation of tube formation, HREC were detached from the tissue culture plate, washed, resuspended in ECM medium containing 1% FBS (1×10^4 cells/well), and added to the Matrigel-coated well in the presence or absence of VEGF along with sialyllactose at various concentrations. The plate was incubated in a 5% CO2 incubator for 24 hours at 37° C., and capillary-like tube formed in each well of the plate was photographed using a Nikon optical microscope.
The VEGF-mediated VEGFR-2 activation is closely associated with the angiogenic action of endothelial cells such as proliferation, migration, survival and tube formation (25). […]

For assay [6], the system named is FAK. In words: Immunofluorescence microscopy of anti-FAK stained focal adhesions in VEGF-stimulated HREC. The settings on record: HREC stimulated with 50 ng/mL VEGF, FIG. 6 C. Format: cell-based, human. Here is the method:
as §4
(§5) HREC were inoculated onto 12 mm n-sterilized, gelatin-coated coverslip of 6-well tissue culture plate. In the presence or absence of sialyllactose, HREC were immobilized with 3.7% formalin with or without treatment with VEGF. Then, the cells were passed through […] Triton X-100 in PBS and washed three times with PBS. Non-specific sites were blocked with PBS-containing 1% bovine serum albumin, while gently shaking at ambient temperature for 30 minutes. After immersing the cells in a solution of FAK, paxillin, vincullin and VE-cadherin antibodies, the cells were incubated overnight at 4° C. After washing with PBS, the cells were further reacted with Alexa Flour 594-conjugate goat anti-mouse IgG (Molecular Probes, USA) and Alexa Flour 488-conjugate goat anti-rabbit IgG (Molecular Probes, USA) at ambient temperature for 1 hour. After washing with PBS, analysis was carried out by fluorescence microscopy. Primary antibodies previously bound to antigens or secondary antibodies were used as negative control. […]

In assay [7] the test system is AKT. Put plainly: Western blotting of VEGF-induced AKT activation in HREC. Format: cell-based, human. The settings on record: FIG. 4. Here is the method: as §4
(§6) HREC were homogenized in a buffer containing 50 mM Tris-HCl (pH 8.0), 150 mM NaCl, 0.02% NaN3, 100 μg/mL PMSF, 1 μg/mL aprotinin and 1% Triton X-100. Protein concentration was measured using a Bio-Rad protein assay (Bio-Rad, USA). Thirty (30) μg of the total cell lysate sample was separated by SDS-PAGE based on size, and subjected to electrophoretic migration toward a nitrocellulose membrane using a Hoefer electrophoresis system (Amersham Biosciences, UK). For detection of target protein, the membrane was reacted with p-AKT, ERK, p-ERK, VEGFR-2 (flk-1, Q-20), VE-cadherin, FAK, paxillin, vincullin (SantaCruz Biotechnology, USA) and p-VEGFR-2 (Cell Signaling Tech., USA) antibodies. Detection was carried out using secondary horseradish peroxidase-bound anti-rabbit IgG antibody, anti-goat IgG antibody and anti-mouse IgG antibody (SantaCruz Biotechnology, USA), and using ECL chemiluminescence system (Amersham Biosciences, UK).
(§7) VEGF-mediated VEGFR-2 activation plays an important role in tumor angiogenesis via the activation of VEGFR-2 downstream signal pathways in endothelial cells (25). […]

The subject of assay [8] is paxillin. Put plainly: Immunofluorescence microscopy of anti-paxillin stained focal adhesions in VEGF-stimulated HREC. It counts as cell-based, human. Conditions: HREC stimulated with 50 ng/mL VEGF, FIG. 6 G. Here is the method: as §4, §5
For assay [9], the system named is experimental dry eye (EDE) mice. Put plainly: Measurement of tear production with cotton thread in mouse model of dry eye. The settings on record: for Tear production (thread's wet length): n = 6, cotton thread 60 seconds. Format: in vivo, C57BL/6 mice. Here is the method:
as §1
Tear production was measured with cotton thread (Zone-quick; Oasis). The thread was held with jeweler forceps and applied to the ocular surface in the lateral canthus for 60 seconds. Wetting of the thread was measured in millimeters, using the scale on the cotton thread.
Tear production at the ocular surface in the lateral canthus from the UT, EDE and two treatment groups (6 eyes/group/experiment, in four different sets of experiments) was measured with cotton thread.

The test system of assay [10] is VE-cadherin. Put plainly: Immunofluorescence microscopy of VEGF-induced intercellular adhesion (VE-cadherin staining) in HREC. Format: cell-based, human. The settings on record: VEGF-stimulated HREC, one hour after VEGF stimulation, FIG. 7 C. The method, then:
as §4, §5

Assay [11] deals with T1, VEGFR-2 (Homo sapiens, UniProt P35968).
T1 construct: host or cells: human retinal endothelial cells (HREC), passages 4 to 6
Put plainly: Western blotting of VEGF-stimulated VEGFR-2 phosphorylation in HREC. Format: cell-based. Conditions: endothelial cells (HREC), concentration-dependent, FIG. 4. Here is the method:
as §4, §6, §7
In general terms: A western blot detects proteins with antibodies after separation by electrophoresis.

Where [12] appears, read: corneal epithelial cells, EDE group treated with sialyllactose, FIG. 2.

T1 sequence (P35968 20-1356): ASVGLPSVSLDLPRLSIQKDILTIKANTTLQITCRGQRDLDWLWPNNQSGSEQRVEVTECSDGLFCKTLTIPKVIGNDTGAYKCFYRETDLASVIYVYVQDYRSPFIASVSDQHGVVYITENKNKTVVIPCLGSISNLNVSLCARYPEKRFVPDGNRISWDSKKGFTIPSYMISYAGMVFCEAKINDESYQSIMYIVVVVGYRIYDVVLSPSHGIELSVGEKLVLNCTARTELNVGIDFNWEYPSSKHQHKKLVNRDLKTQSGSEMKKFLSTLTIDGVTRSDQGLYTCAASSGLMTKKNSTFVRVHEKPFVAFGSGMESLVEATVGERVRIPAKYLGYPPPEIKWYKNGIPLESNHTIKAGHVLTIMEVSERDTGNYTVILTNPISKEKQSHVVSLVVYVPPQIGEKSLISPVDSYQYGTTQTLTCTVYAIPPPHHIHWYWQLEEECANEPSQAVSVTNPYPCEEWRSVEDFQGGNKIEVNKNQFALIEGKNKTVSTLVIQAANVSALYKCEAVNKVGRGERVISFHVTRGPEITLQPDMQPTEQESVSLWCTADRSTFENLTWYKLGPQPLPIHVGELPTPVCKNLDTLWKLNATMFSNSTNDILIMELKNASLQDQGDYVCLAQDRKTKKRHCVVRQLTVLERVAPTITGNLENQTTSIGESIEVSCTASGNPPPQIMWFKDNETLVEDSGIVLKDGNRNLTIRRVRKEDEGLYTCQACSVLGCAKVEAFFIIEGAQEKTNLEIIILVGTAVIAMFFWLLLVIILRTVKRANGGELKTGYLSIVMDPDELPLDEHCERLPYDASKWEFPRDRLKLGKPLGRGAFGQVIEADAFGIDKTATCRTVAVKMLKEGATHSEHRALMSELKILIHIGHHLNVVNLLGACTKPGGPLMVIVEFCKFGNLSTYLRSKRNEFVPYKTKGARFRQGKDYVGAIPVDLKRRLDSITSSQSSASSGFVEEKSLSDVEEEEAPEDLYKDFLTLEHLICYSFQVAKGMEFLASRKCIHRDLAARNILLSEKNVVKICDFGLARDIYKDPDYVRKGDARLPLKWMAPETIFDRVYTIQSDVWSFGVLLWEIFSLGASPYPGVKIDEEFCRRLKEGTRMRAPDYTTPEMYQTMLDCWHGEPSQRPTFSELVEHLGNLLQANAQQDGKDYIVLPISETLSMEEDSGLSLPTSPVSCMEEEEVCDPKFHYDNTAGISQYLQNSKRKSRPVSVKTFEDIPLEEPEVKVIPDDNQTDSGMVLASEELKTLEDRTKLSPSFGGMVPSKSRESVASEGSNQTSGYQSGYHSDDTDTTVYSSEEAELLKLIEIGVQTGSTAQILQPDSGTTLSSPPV

In the case of `CC(=O)N[C@H]1[C@H]([C@H](O)[C@H](O)CO)O[C@@](O[C@H]2[C@@H](O)[C@@H](CO)O[C@@H](O[C@H]3[C@H](O)[C@@H](O)C(O)O[C@@H]3CO)[C@@H]2O)(C(=O)O)C[C@@H]1O` (stereo partly drawn) [sialyllactose, Neu5Ac α-2,3-D-Gal β-1,4-D-Glc], the “Gelatinolytic activity (105 kDa band, MMP-9)” value in [1] (EDE + sialyllactose 1 mg/kg) and in assay [1] (EDE + sialyllactose 5 mg/kg) was “decreased gelatinolytic activity” in each case. In addition, the “Decrease in expression of IL-1β gene, 5 mg/kg compared with 1 mg/kg group” value in assay [2] (EDE + sialyllactose 5 mg/kg) is “larger decrease”. Also, the “Level of IL-1β transcripts” value in [2] (setting [12]) is “decreased”. In addition, the “Decrease in expression of TNF-α gene, 5 mg/kg compared with 1 mg/kg group” value in assay [3] (EDE + sialyllactose 5 mg/kg) is listed as “larger decrease”. The “Level of TNF-α transcripts” value in assay [3] (setting [12]) is “decreased”. Moreover, in [4] (EDE + sialyllactose 5 mg/kg), the “Decrease in expression of MMP-9 gene, 5 mg/kg compared with 1 mg/kg group” value was “larger decrease”. In addition, in assay [4] (setting [12]), the “Level of MMP-9 transcripts” value was “decreased”. For the same compound, the “Width and length of the tube” value in assay [5] is “significantly reduced”. In addition, the “Focal adhesions immunostained with anti-FAK” value in assay [6] is on record as “markedly inhibited”. Besides, the “VEGF-induced AKT activation” value in assay [7] is recorded as “markedly reduced”. In addition, the “Recruitment and increase of anti-paxillin immunostaining of focal adhesions” value in assay [8] is on record as “certainly blocked”. Besides, the “Tear production versus EDE group” value in [9] (EDE + sialyllactose test groups (1 and 5 mg/kg)) was “statistically significant increased tear production”. Also, the “Tear production (thread's wet length)” value in [9] (EDE mice + sialyllactose 1 mg/kg) was determined as 1.55 ± 0.48 mm; in assay [9] (EDE mice + sialyllactose 5 mg/kg), 1.45 ± 0.34 mm. Besides, the “Sharp and continuous intercellular contact areas (VE-cadherin staining)” value in [10] is on record as “recovered”. Also, in assay [11], the “VEGF-stimulated VEGFR-2 phosphorylation” value is “strongly reduced”.

These data come from patent US8524686B2, “Composition for prevention or treatment of eye diseases” (Benebiosis Co., Ltd., priority 2008, dated 2013).
